Experimental data: patent US20260224536A1, “ARYL HETEROCYCLIC KV1.3 INHIBITOR, PREPARATION METHOD THEREFOR, AND USE THEREOF” (SHANGHAI SHENSHI WISE TECHNOLOGY CO., LTD., priority 2022, published 2026)

What follows are molecules tested against Kv1.3 potassium channel (Homo sapiens, UniProt P22001) (assay: Whole-cell patch-clamp assay for inhibitory activity against Kv1.3 (peak current)). Conditions: HEK293 cells stably expressing Kv1.3, patch-clamp.
Kv1.3 potassium channel, sequence (P22001 whole entry): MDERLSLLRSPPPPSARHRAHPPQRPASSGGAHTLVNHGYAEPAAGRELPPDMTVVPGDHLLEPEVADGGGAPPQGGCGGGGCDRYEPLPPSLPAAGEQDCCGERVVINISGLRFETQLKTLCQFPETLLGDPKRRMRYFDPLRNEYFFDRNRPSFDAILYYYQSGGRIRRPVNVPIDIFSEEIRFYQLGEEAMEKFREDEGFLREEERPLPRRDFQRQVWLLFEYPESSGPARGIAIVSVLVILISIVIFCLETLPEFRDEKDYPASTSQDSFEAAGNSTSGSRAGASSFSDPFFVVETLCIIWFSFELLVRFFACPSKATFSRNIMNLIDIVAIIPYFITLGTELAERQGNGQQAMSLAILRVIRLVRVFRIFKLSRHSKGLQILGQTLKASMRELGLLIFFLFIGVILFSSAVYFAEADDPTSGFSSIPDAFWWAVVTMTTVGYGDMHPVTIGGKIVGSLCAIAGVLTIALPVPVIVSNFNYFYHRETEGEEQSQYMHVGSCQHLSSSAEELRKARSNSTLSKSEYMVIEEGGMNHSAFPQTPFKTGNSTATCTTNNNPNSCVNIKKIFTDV
Type: cell-based
From the text: The voltage stimulation protocol for recording whole-cell Kv1.X potassium currents via patch-clamp was as follows. After formation of a whole-cell seal, the cell membrane voltage was clamped at −80 mV, and then stepped to +40 mV for 500 ms. […] The test data were acquired by EPC-10 amplifier (HEKA) and stored in the PatchMaster (HEKA) software. Recording electrodes were drawn from capillary glass tubes using a microelectrode puller. Under an inverted microscope, the recording electrode was brought into contact with the cell surface by manipulating a microelectrode manipulator. Negative-pressure suction was applied to form a GΩ seal. After formation of the […], a rapid capacitance compensation was given. The application of negative pressure was continued to rupture the cell membrane, forming a whole-cell recording mode. Then, a slow capacitance compensation was given, and the membrane capacitance and series resistance were recorded. No current leakage compensation was provided. Once the whole-cell recorded Kv1.X current stabilized, drug administration was started. Each drug concentration was allowed to act for 5 min (or until the current reached a steady state) before the next concentration was tested. Multiple concentrations were tested for each test compound. The cover glass plated with the cells was placed in a recording bath of the inverted microscope. The test compound and the compound-free extracellular fluid were allowed to sequentially flow through the recording bath from low concentrations to high concentrations using a gravity perfusion method, thus acting on the cells, and liquid exchange was performed using a vacuum pump during recording. For each cell, the current detected in the compound-free extracellular liquid was used as its own control group. The test was independently repeated three times using at least three cells per concentration. All electrophysiological experiments were performed at room temperature. […] First, the peak current after the action of each drug concentration and the peak current of the blank control were standardized and then the inhibition rate corresponding to each drug concentration was calculated Subsequently, the mean, standard deviation (SD), and standard error (SE) were calculated for the inhibition rate corresponding to each concentration. Using the above equation, the IC50 value for each compound was calculated, and the dose-dependent effect was subjected to non-linear fitting, where IC50 is the half maximal inhibitory concentration. The IC50 calculation and the curve fitting were performed using the GraphPad Prism software.
`CC(F)(F)c1nnc2n1C[C@H](c1c(O)ccc(Cl)c1Cl)C2` [Example 85, (S)-3,4-Dichloro-2-(3-(1,1-difluoroethyl)-6,7-dihydro-5H-pyrrolo[2,1-c][1,2,4]triazol-6-yl)phenol] showed an IC50 of 0.0245 µM.
Molecule `Oc1ccc(Cl)c(Cl)c1[C@@H]1Cc2nnc(C(F)(F)F)n2C1` [Example 86, (S)-3,4-Dichloro-2-(3-(trifluoromethyl)-6,7-dihydro-5H-pyrrolo[2,1-c][1,2,4]triazol-6-yl)phenol] has an IC50 of 0.025 µM.
For `Oc1ccc(Cl)c(Cl)c1[C@@H]1Cc2nnc(CC(F)(F)F)n2C1` [Example 87, (S)-3,4-Dichloro-2-(3-(2,2,2-trifluoroethyl)-6,7-dihydro-5H-pyrrolo[2,1-c][1,2,4]triazol-6-yl)phenol], the IC50 was 0.0207 µM.
For `CC1(C)CC(c2nnc3n2CC(c2c(O)ccc(Cl)c2Cl)C3)CC(C)(C)N1` (stereo not drawn) [Example 88, 3,4-Dichloro-2-(3-(2,2,6,6-tetramethylpiperidin-4-yl)-6,7-dihydro-5H-pyrrolo[2,1-c][1,2,4]triazol-6-yl)phenol], the IC50 was 0.0586 µM.
With `CC1(C)CC(c2nnc3n2CC(c2c(O)ccc(Cl)c2Cl)C3)CCN1` (stereo not drawn) [Example 89, 3,4-Dichloro-2-(3-(2,2-dimethylpiperidin-4-yl)-6,7-dihydro-5H-pyrrolo[2,1-c][1,2,4]triazol-6-yl)phenol] the IC50 was 0.00825 µM.
Molecule `Oc1ccc(Cl)c(Cl)c1[C@@H]1Cc2ncc(C3CCCC3)n2C1` [Example 90, (S)-3,4-Dichloro-2-(3-cyclopentyl-6,7-dihydro-5H-pyrrolo[1,2-a]imidazol-6-yl)phenol] has an IC50 of 0.00708 µM.
For `Oc1ccc(Cl)c(Cl)c1[C@H]1Cc2ncc(C3CCCC3)n2C1` [Example 91, (R)-3,4-dichloro-2-(3-cyclopentyl-6,7-dihydro-5H-pyrrolo[1,2-a]imidazol-6-yl)phenol], the IC50 was 0.00492 µM.
For `CCc1cnc2n1C[C@H](c1c(O)ccc(Cl)c1Cl)C2` [Example 92, (S)-3,4-Dichloro-2-(3-ethyl-6,7-dihydro-5H-pyrrolo[1,2-a]imidazol-6-yl)phenol], the IC50 was 0.00551 µM.
In the case of `CCc1cnc2n1C[C@@H](c1c(O)ccc(Cl)c1Cl)C2` [Example 93, (R)-3,4-dichloro-2-(3-ethyl-6,7-dihydro-5H-pyrrolo[1,2-a]imidazol-6-yl)phenol], the IC50 is reported as 0.00311 µM.
`CC(C)N1CCC(c2cnc3n2C[C@@H](c2c(O)ccc(Cl)c2Cl)C3)CC1` [Example 95, (R)-3,4-dichloro-2-(3-(1-isopropylpiperidin-4-yl)-6,7-dihydro-5H-pyrrolo[1,2-a]imidazol-6-yl)phenol] showed an IC50 of 0.00606 µM.
`COc1ccc(-c2cnc3n2CC(c2c(O)ccc(Cl)c2Cl)C3)cc1` (stereo not drawn) [Example 96, 3,4-Dichloro-2-(3-(4-methoxyphenyl)-6,7-dihydro-5H-pyrrolo[1,2-a]imidazol-6-yl)phenol] gave an IC50 of 0.0516 µM.
Work on `Cn1cc(-c2cnc3n2CC(c2c(O)ccc(Cl)c2Cl)C3)cn1` (stereo not drawn) [Example 97, 3,4-Dichloro-2-(3-(1-methyl-1H-pyrazol-4-yl)-6,7-dihydro-5H-pyrrolo[1,2-a]imidazol-6-yl)phenol] yielded an IC50 of 0.0117 µM.
For `CC(C)(C)n1cc(-c2cnc3n2CC(c2c(O)ccc(Cl)c2Cl)C3)cn1` (stereo not drawn) [Example 98, 2-(3-(1-(tert-Butyl)-1H-pyrazol-4-yl)-6,7-dihydro-5H-pyrrolo[1,2-a]imidazol-6-yl)-3,4-dichlorophenol], the IC50 was 0.0255 µM.
Work on `CC(C)N1CCN(c2cnc3n2CC(c2c(O)ccc(Cl)c2Cl)C3)CC1` (stereo not drawn) [Example 100, 3,4-Dichloro-2-(3-(4-isopropylpiperazin-1-yl)-6,7-dihydro-5H-pyrrolo[1,2-a]imidazol-6-yl)phenol] yielded an IC50 of 0.00989 µM.
`Oc1ccc(Cl)c(Cl)c1C1Cc2nnc(N3CCOCC3)n2C1` (stereo not drawn) [Example 101, 3,4-Dichloro-2-(3-morpholino-6,7-dihydro-5H-pyrrolo[2,1-c][1,2,4]triazol-6-yl)phenol] gave an IC50 of 0.0098 µM.
In the case of `CC(C)N1CCC(Oc2nnc3n2CC(c2c(O)ccc(Cl)c2Cl)C3)CC1` (stereo not drawn) [Example 102, 3,4-dichloro-2-(3-((1-isopropylpiperidin-4-yl)oxy)-6,7-dihydro-5H-pyrrolo[2,1-c][1,2,4]triazol-6-yl)phenol], the IC50 is reported as 0.00699 µM.
In the case of `CC(C)N1CCC(n2nc3n(c2=O)C[C@H](c2c(O)ccc(Cl)c2Cl)C3)CC1` [Example 103, (S)-6-(2,3-dichloro-6-hydroxyphenyl)-2-(1-isopropylpiperidin-4-yl)-2,5,6,7-tetrahydro-3H-pyrrolo[2,1-c][1,2,4]triazol-3-one], the IC50 is reported as 0.00768 µM.
In the case of `CC(C)N1CCC(n2nc3n(c2=O)C[C@@H](c2c(O)ccc(Cl)c2Cl)C3)CC1` [Example 104, (R)-6-(2,3-dichloro-6-hydroxyphenyl)-2-(1-isopropylpiperidin-4-yl)-2,5,6,7-tetrahydro-3H-pyrrolo[2,1-c][1,2,4]triazol-3-one], the IC50 is reported as 0.00693 µM.
`O=c1n(C2CCNCC2)nc2n1CC(c1c(O)ccc(Cl)c1Cl)C2` (stereo not drawn) [Example 105, 6-(2,3-Dichloro-6-hydroxyphenyl)-2-(piperidin-4-yl)-2,5,6,7-tetrahydro-3H-pyrrolo[2,1-c][1,2,4]triazol-3-one] gave an IC50 of 0.00593 µM.
Molecule `CCn1nc2n(c1=O)C[C@H](c1c(O)ccc(Cl)c1Cl)C2` [Example 106, (S)-6-(2,3-Dichloro-6-hydroxyphenyl)-2-ethyl-2,5,6,7-tetrahydro-3H-pyrrolo[2,1-c][1,2,4]triazol-3-one] has an IC50 of 0.0298 µM.
In the case of `O=c1n(CC(F)F)nc2n1C[C@H](c1c(O)ccc(Cl)c1Cl)C2` [Example 107, (S)-6-(2,3-Dichloro-6-hydroxyphenyl)-2-(2,2-difluoroethyl)-2,5,6,7-tetrahydro-3H-pyrrolo[2,1-c][1,2,4]triazol-3-one], the IC50 is reported as 0.031 µM.
For `O=c1n(C2CCOCC2)nc2n1C[C@H](c1c(O)ccc(Cl)c1Cl)C2` [Example 108, (S)-6-(2,3-Dichloro-6-hydroxyphenyl)-2-(tetrahydro-2H-pyran-4-yl)-2,5,6,7-tetrahydro-3H-pyrrolo[2,1-c][1,2,4]triazol-3-one], the IC50 was 0.0278 µM.
Molecule `O=c1n([C@H]2CCOC2)nc2n1C[C@H](c1c(O)ccc(Cl)c1Cl)C2` [Example 109, (S)-6-(2,3-Dichloro-6-hydroxyphenyl)-2-((S)-tetrahydrofuran-3-yl)-2,5,6,7-tetrahydro-3H-pyrrolo[2,1-c][1,2,4]triazol-3-one] has an IC50 of 0.0317 µM.
`O=c1n([C@@H]2CCOC2)nc2n1C[C@H](c1c(O)ccc(Cl)c1Cl)C2` [Example 110, (S)-6-(2,3-dichloro-6-hydroxyphenyl)-2-((R)-tetrahydrofuran-3-yl)-2,5,6,7-tetrahydro-3H-pyrrolo[2,1-c][1,2,4]triazol-3-one] gave an IC50 of 0.0201 µM.
`Oc1ccc(Cl)c(Cl)c1[C@@H]1Cc2nnc(-c3ccnc(C(F)(F)F)c3)n2C1` [Example 111, (S)-3,4-Dichloro-2-(3-(2-(trifluoromethyl)pyridin-4-yl)-6,7-dihydro-5H-pyrrolo[2,1-c][1,2,4]triazol-6-yl)phenol] gave an IC50 of 0.0144 µM.
`CCn1cc2c(n1)CC(c1c(O)ccc(Cl)c1Cl)C2` (stereo not drawn) [Example 112, 3,4-Dichloro-2-(2-ethyl-2,4,5,6-tetrahydrocyclopenta[c]pyrazol-5-yl)phenol] showed an IC50 of 0.0431 µM.
In the case of `CCc1c2c(nn1C)CC(c1c(O)ccc(Cl)c1Cl)C2` (stereo not drawn) [Example 113, 3,4-Dichloro-2-(3-ethyl-2-methyl-2,4,5,6-tetrahydrocyclopenta[c]pyrazol-5-yl)phenol], the IC50 is reported as 0.0579 µM.
`CCc1nn(C)c2c1C[C@H](c1c(O)ccc(Cl)c1Cl)C2` [Example 115, (S)-3,4-Dichloro-2-(3-ethyl-1-methyl-1,4,5,6-tetrahydrocyclopenta[c]pyrazol-5-yl)phenol] gave an IC50 of 0.0588 µM.
In the case of `CCc1nn(C)c2c1C[C@@H](c1c(O)ccc(Cl)c1Cl)C2` [Example 116, (R)-3,4-dichloro-2-(3-ethyl-1-methyl-1,4,5,6-tetrahydrocyclopenta[c]pyrazol-5-yl)phenol], the IC50 is reported as 0.0441 µM.
For `CCn1ncc2c1C[C@@H](c1c(O)ccc(Cl)c1Cl)C2` [Example 117, (S)-3,4-dichloro-2-(1-ethyl-1,4,5,6-tetrahydrocyclopenta[c]pyrazol-5-yl)phenol], the IC50 was 0.065 µM.
Work on `Oc1ccc(Br)c(Br)c1C1Cc2nnc([C@@H]3CCOC3)n2C1` (stereo partly drawn) [Example 119, 3,4-Dibromo-2-(3-((S)-tetrahydrofuran-3-yl)-6,7-dihydro-5H-pyrrolo[2,1-c][1,2,4]triazol-6-yl)phenol] yielded an IC50 of 0.00654 µM.
`Oc1ccc(Br)c(Cl)c1C1Cc2nnc([C@@H]3CCOC3)n2C1` (stereo partly drawn) [Example 120, (S)-4-Bromo-3-chloro-2-(3-(tetrahydrofuran-3-yl)-6,7-dihydro-5H-pyrrolo[2,1-c][1,2,4]triazol-6-yl)phenol] showed an IC50 of 0.0202 µM.
For `CC(C)N1CCN(C(=O)c2cnc3n2C[C@H](c2c(O)ccc(Cl)c2Cl)C3)CC1` [Example 121, (S)-(6-(2,3-Dichloro-6-hydroxyphenyl)-6,7-dihydro-5H-pyrrolo[1,2-a]imidazol-3-yl)(4-isopropylpiperazin-1-yl)methanone], the IC50 was 0.00968 µM.
